Test results published in ChEMBL document CHEMBL1125092, “Nonneurotoxic tetralin and indan analogues of 3,4-(methylenedioxy)amphetamine (MDA)” (J Med Chem, 1990).

Experiments:
Assay type in all cases: functional
[1] = test system: Rattus norvegicus; assay: Hallucinogenic property was determined in groups of MDMA trained rats and percentage of animals disrupted was reported at a dose 11.64 (umol/kg),(number of animals = 6)
[2] = test system: Rattus norvegicus; assay: Tested for stimulus generation in rats trained to discriminate +/-MDMA from saline at 3.88 (umol/kg),(number of animals = 11)
[3] = test system: Rattus norvegicus; assay: Hallucinogenic property was determined in groups of MDMA trained rats and percentage of animals disrupted was reported at a dose 3.88 (umol/kg),(number of animals = 11)
[4] = test system: Rattus norvegicus; assay: Tested for stimulus generation in rats trained to discriminate +/-MDMA from saline at 1.94 (umol/kg),(number of animals = 10)
[5] = test system: Rattus norvegicus; assay: Percentage of animals disrupted was determined in groups of MDMA trained rats at a dose 1.94 (umol/kg),(no of animals=10)
[6] = test system: Rattus norvegicus; assay: Percentage of animals disrupted was determined in groups of LSD trained rats at a dose of 10.67 (umol/kg),(no of animals = 5)
[7] = test system: Rattus norvegicus; assay: Hallucinogenic property was determined in groups of LSD trained rats and percentage of animals disrupted was reported at a dose 9.70 (umol/kg),(number of animals = 13)
[8] = test system: Rattus norvegicus; assay: Tested for stimulus generation in rats trained to discriminate LSD from saline at a dose 5.82 (umol/kg),(number of animals = 11)
[9] = test system: Rattus norvegicus; assay: Tested for stimulus generation in rats trained to discriminate LSD from saline at a dose 9.70 (umol/kg),(number of animals = 13)
[10] = test system: Rattus norvegicus; assay: Hallucinogenic property was determined in groups of MDMA trained rats and percentage of animals disrupted was reported at a dose 7.76 (umol/kg),(number of animals = 11)
[11] = test system: Rattus norvegicus; assay: Tested for stimulus generation in rats trained to discriminate +/-MDMA from saline at 7.76 (umol/kg),(number of animals = 11)
[12] = test system: Rattus norvegicus; assay: Hallucinogenic property was determined in groups of LSD trained rats and percentage of animals disrupted was reported at a dose 7.77 (umol/kg),(number of animals = 15)
[13] = test system: Rattus norvegicus; assay: Tested for stimulus generation in rats trained to discriminate LSD from saline at a dose 3.88 (umol/kg),(number of animals = 10)
[14] = test system: Rattus norvegicus; assay: Tested for stimulus generation in rats trained to discriminate LSD from saline at a dose 7.77 (umol/kg),(number of animals = 15)
[15] = test system: Rattus norvegicus; assay: Hallucinogenic property was determined in groups of LSD trained rats and percentage of animals disrupted was reported at a dose 3.88 (umol/kg),(number of animals = 10)
[16] = test system: Rattus norvegicus; assay: Hallucinogenic property was determined in groups of LSD trained rats and percentage of animals disrupted was reported at 5.82 (umol/kg),(number of animals = 11)

`COc1cc(C)c(OC)c2c1CC(N)CC2` (stereo unspecified) showed a D [1] of 83%, an SDL [2] of 50% and a D [3] of 27%. It also gave an SDL [4] of 38%, a D [5] of 20% and a D [6] of 100%. The D [7] was 69%, the SDL [8] was 38% and the SDL [9] was 0%. For the same compound, the D [10] was 27%, the SDL [11] was 38% and the D [12] was 47%. It also gave an SDL [13] of 25%, an SDL [14] of 13% and a D [15] of 20%. It also gave a D [16] of 27%.
